14 compounds from patent publication US12358915B2, “METTL3 inhibitory compounds” (STORM THERAPEUTICS LTD., priority 2019, dated 2025) can be followed below.

A word on the IC50: it is the concentration needed to halve the response being measured.

The assay addresses T1, METTL3/14 (Homo sapiens, UniProt Q86U44).
T1 construct: The enzyme used was full-length his-tagged METTL3; His; made in house
Kind of assay: METTL3/14 methyltransferase assay (METTL3_14 RFMS, RapidFire mass spectrometry).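 Further: recombinant His-tagged METTL3 with FLAG-tagged METTL14 from baculovirus, SAH product quantified by mass spectrometry against isotope-labelled internal standards, 60 min at room temperature, scaled between no-RNA and DMSO-only wells.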 It is filed as biochemical. Particulars: 5 nM METTL3/14, 0.2 μM RNA substrate, 0.5 μM SAM, lower limit of the assay IC50=5 nM, read-out: METTL3_14 RFMS IC50.

Structures are written as SMILES. Read-outs that look alike come from different tables or passages of the source.

T1 sequence (Q86U44 whole entry): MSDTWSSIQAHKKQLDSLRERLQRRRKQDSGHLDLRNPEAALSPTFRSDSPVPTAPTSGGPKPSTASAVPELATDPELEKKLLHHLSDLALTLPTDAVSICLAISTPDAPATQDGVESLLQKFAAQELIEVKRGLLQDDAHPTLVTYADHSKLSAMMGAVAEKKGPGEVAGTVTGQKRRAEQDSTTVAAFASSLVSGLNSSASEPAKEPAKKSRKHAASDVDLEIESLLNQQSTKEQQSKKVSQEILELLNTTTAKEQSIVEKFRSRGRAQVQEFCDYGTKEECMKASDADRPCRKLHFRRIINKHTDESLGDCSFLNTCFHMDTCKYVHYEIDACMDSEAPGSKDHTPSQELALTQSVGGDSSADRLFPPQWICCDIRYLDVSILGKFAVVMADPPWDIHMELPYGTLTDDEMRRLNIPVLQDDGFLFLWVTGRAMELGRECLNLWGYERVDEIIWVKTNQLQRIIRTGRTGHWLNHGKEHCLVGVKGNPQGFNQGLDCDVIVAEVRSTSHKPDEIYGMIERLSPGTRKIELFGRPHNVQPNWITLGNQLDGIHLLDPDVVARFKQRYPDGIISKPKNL
T1 sequence (Q9HCE5 whole entry partner): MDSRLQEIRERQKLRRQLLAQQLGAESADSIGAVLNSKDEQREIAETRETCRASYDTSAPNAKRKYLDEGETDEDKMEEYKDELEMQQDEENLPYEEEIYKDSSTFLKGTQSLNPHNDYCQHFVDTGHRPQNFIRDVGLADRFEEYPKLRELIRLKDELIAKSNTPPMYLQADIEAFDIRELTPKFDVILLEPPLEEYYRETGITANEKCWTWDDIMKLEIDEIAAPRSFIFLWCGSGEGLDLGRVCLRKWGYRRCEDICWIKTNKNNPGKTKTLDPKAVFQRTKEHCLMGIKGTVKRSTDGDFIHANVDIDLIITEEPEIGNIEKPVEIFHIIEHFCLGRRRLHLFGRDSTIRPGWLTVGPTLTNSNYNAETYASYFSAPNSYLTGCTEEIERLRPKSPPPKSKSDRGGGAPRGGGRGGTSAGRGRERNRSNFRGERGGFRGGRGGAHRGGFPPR

Take `O=C(NCc1cn2cc(CNCC3CC3(F)F)ccc2n1)c1cc(=O)n2ccccc2n1` (centres unmarked) [Compound 157, N-{[6-({[(2,2-difluoro-cyclopropyl)methyl]amino}methyl)imidazo [1,2-a]pyridin-2-yl]methyl}-4-oxo-4H-pyrido [1,2-a]pyrimidine-2-carboxamide]: the half-inhibitory concentration (IC50) (Compounds 63-265) turned out to be 0.0429 µM.

For `O=C(NCc1cn2cc(-c3ccn[nH]3)ccc2n1)c1cccc2[nH]ncc12` [Compound 35, N-{[6-(1H-pyrazol-5-yl)imidazo[1,2-a]pyridin-2-yl]methyl}-1H-indazole-4-carboxamide], the IC50 (Compounds 1-62) turned out to be 15.8 µM.

For the compound `c1cc(-n2cc(Cc3cn4ccccc4n3)nn2)c2cn[nH]c2c1` [Example 336, 4-(4-(imidazo[1,2-a]pyridin-2-ylmethyl)-1H-1,2,3-triazol-1-yl)-1H-indazole], the IC50 (Compounds 266-351) turned out to be 4.16 µM.

Take `CCN(CC)Cc1ccc2nc(CNC(=O)c3cc(=O)n4ccccc4n3)cn2c1` [Compound 132, N-({6-[(diethylamino)methyl]imidazo [1,2-a]pyridin-2-yl}methyl)-4-oxo-4H-pyrido[1,2-a] pyrimidine-2-carboxamide]: the IC50 (Compounds 63-265) was determined as 0.917 µM.

For the compound `O=C(NCc1cn2cc(CNCC3CCCCC3)ccc2n1)c1cc(=O)c2cccc(Cl)c2o1` [Compound 185, 8-chloro-N-[(6-{[(cyclohexylmethyl)amino]methyl}imidazo[1,2-a]pyridin-2-yl)methyl]-4-oxo-4H-chromene-2-carboxamide], the IC50 (Compounds 63-265) amounted to 1.07 µM.

With `Nc1ccc(C(=O)NCc2cn3cc(CNCC4CCCCC4)ccc3n2)cn1` [Compound 176, 6-amino-N-[(6-{[(cyclohexylmethyl)amino]methyl}imidazo[1,2-a]pyridin-2-yl)methyl] pyridine-3-carboxamide], the IC50 (Compounds 63-265) is 0.909 µM.

Turning to `COC(=O)C1CCCN(Cc2ccc3nc(CNC(=O)c4cc(=O)n5ccccc5n4)cn3c2)C1` (centres unmarked) [Compound 200, methyl 1-({2-[({4-oxo-4H-pyrido[1,2-a]pyrimidin-2-yl}formamido)methyl]imidazo [1,2-a]pyridin-6-yl}methyl) piperidine-3-carboxylate], the IC50 (Compounds 63-265) was found to be 1.26 µM.

Take `O=C(NCc1cn2cc(F)ccc2n1)c1cc(=O)n2ccccc2n1` [Compound 22, N-({6-fluoroimidazo[1,2-a]pyridin-2-yl}methyl)-4-oxo-4H-pyrido[1,2-a]pyrimidine-2-carboxamide]: for the setting “Compounds 1-62”, the IC50 is 2.21 µM.

Turning to `O=C(NCc1cn2ccccc2n1)c1cc(=O)n2ccccc2n1` [Compound 26], the IC50 (Compounds 1-62) was 2.06 µM.

Take `O=C(NCc1cn2cc([C@H]3COC[C@@H](C4CCCCC4)N3)ccc2n1)c1cc(=O)n2ccccc2n1` [Example 230, N-({6-[(3S,5R)-5-cyclohexylmorpholin-3-yl]imidazo[1,2-a]pyridin-2-yl}methyl)-4-oxo-4H-pyrido[1,2-a]pyrimidine-2-carboxamide]: under “Compounds 63-265”, the IC50 is 0.0813 µM.

Turning to `O=C(NCc1cn2cc(CNCC3CCOCC3)ccc2n1)c1cc(=O)n2ccccc2n1` [Compound 82, N-{[6-({[(oxan-4-yl)methyl]amino}methyl)imidazo[1,2-a]pyridin-2-yl]methyl}-4-oxo-4H-pyrido[1,2-a] pyrimidine-2-carboxamide], the IC50 (Compounds 63-265) was determined as 0.354 µM.

Take `C=Cc1ccn2cc(CNC(=O)c3cc(=O)n4ccccc4n3)nc2c1` [Compound 60, N-({7-ethenylimidazo[1,2-a]pyridin-2-yl}methyl)-4-oxo-4H-pyrido[1,2-a]pyrimidine-2-carboxamide]: the IC50 (Compounds 1-62) was determined as 0.7 µM.

Take `O=C(NCc1cn2cc(CN3CCN(c4ccccc4)CC3)ccc2n1)c1cc(=O)n2ccccc2n1` [Compound 130, 4-oxo-N-({6-[(4-phenylpiperazin-1-yl)methyl]imidazo [1,2-a]pyridin-2-yl}methyl)-4H-pyrido[1,2-a] pyrimidine-2-carboxamide]: the IC50 (Compounds 63-265) came to 0.206 µM.

For `O=C(NCc1cn2cc(CNC(CO)C3CCCCC3)ccc2n1)c1cc(=O)n2ccccc2n1` (centres unmarked) [Compound 168, N-[(6-{[(1-cyclohexyl-2-hydroxyethyl)amino]methyl}imidazo[1,2-a]pyridin-2-yl)methyl]-4-oxo-4H-pyrido[1,2-a]pyrimidine-2-carboxamide], the IC50 (Compounds 63-265) came out at 0.114 µM.
